Source: PMC4864350, “Fluorogenic Substrates for In Situ Monitoring of Caspase-3 Activity in Live Cells” (PLoS ONE, 2016)
*: point of attachment. MethylRed = CN(C)c1ccc(/N=N/c2ccccc2C(=O)*)cc1; FAM = 5(6)-carboxyfluorescein; peptoid = not defined here; Ahx = NCCCCCC(=O)O

Assays:
[1] = molecular target: T1, caspase-7 (Homo sapiens, UniProt P55210); test: Caspase-7-mediated cleavage at high enzyme concentration analysed by MALDI-TOF MS; format: biochemical; details: 10–20 μM substrate, 0.4 μM enzyme, 2 h, 37 °C
T1 construct: purchased R&D systems, USA
T1 sequence (P55210 24-198 limits assumed): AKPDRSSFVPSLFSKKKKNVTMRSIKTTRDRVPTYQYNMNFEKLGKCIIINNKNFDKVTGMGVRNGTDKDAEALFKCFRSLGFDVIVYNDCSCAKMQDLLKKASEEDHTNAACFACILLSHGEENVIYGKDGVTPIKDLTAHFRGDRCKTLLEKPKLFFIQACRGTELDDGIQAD
T1 sequence (P55210 207-303 limits assumed): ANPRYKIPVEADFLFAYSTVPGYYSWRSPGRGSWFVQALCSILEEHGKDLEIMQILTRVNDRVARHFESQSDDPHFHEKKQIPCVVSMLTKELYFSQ
Method: To confirm how specific 11, 12 and 14 were for caspase-3, these substrates were incubated with high enzyme concentrations (10–20 μM substrate, 0.4 μM enzyme) and the caspase-mediated cleavage analysed by MALDI-TOF MS.
S2 Fig. (A) MALDI-TOF MS spectra of substrate 11 (sequence Asp-Ala-Pro-Asp). (B) After incubation (20 µM) with Caspase-3 for 2 h. (C) After incubation (20 µM) with Caspase-7 for 2 h (detected as the PBS adduct.)
Caspase-3 or caspase-7 (R&D systems, USA) was added to 100 µL of caspase assay buffer (final enzyme concentration 0.4 µM) with the substrates at 10–20 µM. The samples were incubated in Eppendorf Thermomixer® Comfort shaking at 1200 rpm for 2h at 37 °C. MALDI -TOF mass spectra were recorded as described in Table S1 .
(§1) (1 picture or pasted object on this page, not shown here)

[2] = test system: HEK293T cells; test: Flow cytometry detection of caspase-3 activity in live cells; format: cell-based; details: 27 at 10 μM, 5 h
Method: Fig 4 Flow cytometry analysis of healthy and apoptotic HEK293T cells treated with substrate 27. The cells were incubated 5 h with fluorogenic substrate 27 (10 μM), detached, and analysed by flow cytometry (λEx/Em 488/530 nm, x-axis = fluorescence intensity). (A) Healthy, non-apoptotic cells. (B) Apoptotic cells (induced by 1 μM staurosporine). TEXT PRINTED IN THE PICTURE: (A) no label printed: FITC - 92.7%; FITC + 7.28% | (B) no label printed: FITC - 1.57%; FITC + 98.4% […]
Cell culture was performed in a Heracell 150 incubator (Heraeus) and in a Herasafe KS 18 class II negative-flow cabinet (Heraeus). HEK293T and MCF-7 cells (cultured in high glucose (4.5 mg/mL) DMEM supplemented with 4 mM glutamine, 100 units/mL penicillin, 10 mg/mL streptomycin and 25 mg/mL amphotericin B, and 10% FBS) were seeded onto a 48-well plate at a density of 10^4 cells per well. After 12 hours, the media was removed and substrates 1–14 added at 10 μM in fresh media. Selected wells were also treated with staurosporine (1 μM). After 5 hours, the cells were washed twice with PBS, detached with trypsin/EDTA, harvested with 2% FBS in PBS supplemented with Trypan Blue (0.04%) for analysis on a BD FACSAria® flow cytometer. Fluorescence was evaluated as mean fluorescence intensity (MFI) and estimated <100 u.a. for untreated control cells (consistent values independently of staurosporine addition). Apoptotic cells treated with substrate 1 were used as a positive control to obtain the maximum of fluorescence signal. 50,000 events per sample were plotted in two-dimensional dot plots based on forward and side scattering. The cellular size and complexity (SSC-H vs. FSC-H) were used to gate two populations (alive/apoptotic cells) (debri excluded). The data were analysed using the software Flowjo® 7.5.
Quantification of caspase-3 in apoptotic cells by flow cytometry
Localisation of apoptotic cells by flow cytometry. Flow cytometry analysis of morphology (SSC-A) and size (FSC-A) of HEK293T cells without (left image) and with (right image) treatment with 1 µM staurosporine for 4 h.
Calculation of active caspase-3 concentration inside cells
Substrate 27 was used to quantify caspase-3 per cell.1
1. Calculate FAM-Ahx-Leu-Pro-Asp released per cell:
Fluorescein-labelled microspheres (0.5% SC, ≈ 2 mmol/g),2 were used to generate the standard curve for fluorescence intensity versus amount of the fluorophore (nmol) by flow cytometry (see below).
Kossler, S.; Nofziger, C.; Jakab, M.; Dossena, S.; Paulmichl, M. Toxicology, 2012, 292, 123-135.
2 a) A. uncit-Broceta, E.M.V. Johansson, R.M. Yusop, R.M. Sanchez-Martin and M. Bradley, Nat.
Protocol, 2012, 7, 1207-1218. b) J.M. Cardenas-Maestre and R.M. Sanchez-Martin, Org. Biomol. Chem., […]
as §1
FAM standard curve to determine conversion factor (7x109 MFI/nmol) representing FI (Fluorescence Intensity) versus FAM quantity (nmol).
To determine the concentration of FAM-Ahx-Leu-Pro-Asp released per cell (nmol/cell) = [FI/cell – FI0/cell]/7x109 FI/nmol
Assuming 20 µm cell diameter and 2/3 of that for the nucleus, the cytoplasmic volume of HEK293T cell is 3 pl (VC).1,3
FAM-Ahx-Leu-Pro-Asp released per cell (M) = FAM-Ahx-Leu-Pro-Asp released per […]
2. Calculate the rate of product formation V0 with 5 h staurosporine treatment:
V0 = d[P]/dt = FAM-Ahx-Leu-Pro-Asp released per cell (mM)/18000 sec
3. Quantify the concentration of the enzyme per cell at high substrate concentrations (enzyme saturation) […]
kcat = 0.04 s-1 (sensor 27 DLPDK)
[E] = enzyme concentration per cell (nM)
[Caspase-3] = 15.65 ± 0.46 nM (1.3 ng active caspase 3 per 106 apoptotic staurosporine- […]
3 Y. Liu, X. Yan and T. Zhou, PLOS one, 2013, 8, 8.
4. Quantify the number of molecules per cell of caspase-3
NoE (number of enzyme molecules per cell) = [E]xVCxNA […]

[3] = test system: HEK293T cells; test: Live-cell confocal imaging of caspase-3 activation; format: cell-based; details: 27 at 10 μM
Method: (§2) Fig 5 Confocal microscopy images of HEK293T and MCF-7 cells treated with substrate 27. Confocal microscopy images (objective HCX PL APO ×63/1.40–0.6 Oil CS) of HEK273T cells with substrate 27 (10 μM) without staurosporine (STS) (A) and with staurosporine (1 μM) (B) induced apoptosis (green fluorescence is from fluorescein “turned on” by caspase-3 cleavage of the substrate, blue is DAPI nuclear stain). (C) Staurosporine treated MCF-7 cells with substrate 27.
(§3) Cell culture was performed in a Heracell 150 incubator (Heraeus) and in a Herasafe KS 18 class II negative-flow cabinet (Heraeus). […] Fluorescence was evaluated as mean fluorescence intensity (MFI) and estimated <100 u.a. for untreated control cells (consistent values independently of staurosporine addition). Apoptotic cells treated with substrate 1 were used as a positive control to obtain the maximum of fluorescence signal. […] The data were analysed using the software Flowjo® 7.5.
(§4) For confocal microscopy, the cells were fixed with 4% paraformaldehyde in PBS and the nuclei stained with Hoechst-33342 (1% w/v in PBS). Cellular fluorescence of cells was analysed using an Inverted Leica DM IRB with filter I3 (450–490 nm) and a Leica SP5 Confocal (FITC and DAPI channel).

[4] = test system: MCF-7 cells; test: Confocal imaging of staurosporine-treated cells lacking functional caspase-3; format: cell-based; details: cells lack functional caspase-3 but express caspase-7
Method: as §2, §3, §4

[5] = apoptosis induced by 1 μM staurosporine (Fig 4B)

substrate 27: FAM-Ahx-Asp-Leu-Pro-Asp-Lys(MR)-Ahx, conjugated to the cell penetrating peptoid at the C-terminus ({FAM-Ahx}-DLPDK(MethylRed)-{Ahx-peptoid}; reading uncertain; also: printed as FAM-Ahx-Asp-Leu-Pro-Asp-Lys(MR)-Ahx)
cleavage by caspase-7 (MALDI-TOF MS) [1]: did not show any cleavage
FITC + cells, apoptotic [2, 5]: 98.4%
FITC - cells, apoptotic [2, 5]: 1.57%
increase in fluorescence without staurosporine ([2]; no staurosporine, flow cytometry): no increase observed
FITC + cells, healthy ([2]; non-apoptotic cells (Fig 4A)): 7.28%
FITC - cells, healthy ([2]; non-apoptotic cells (Fig 4A)): 92.7%
increase in the fluorescence intensity of the cells after apoptotic stimulation ([2]; staurosporine 1 μM, flow cytometry λEx/Em 488/530 nm): 2.5 fold
fluorescence turn-on in apoptotic cells (confocal) ([3]; staurosporine 1 μM): only detected in the cytoplasm of apoptotic HEK293T cells
fluorescence in non-apoptotic cells (confocal) ([3]; without staurosporine): no increase in fluorescence observed
fluorescence turn-on in apoptotic MCF-7 cells (confocal) [4]: No fluorescence “turn-on” was observed
